What all share (format): biochemical
The target in one test is T1, JAK3 (Homo sapiens, UniProt P52333).
T1 construct: made in house; host or cells: SF9 insect cells (baculovirus)
Nature of the test: JAK3 inhibition (Table 4). Particulars: read-out: JAK3 Ki.

The next test deals with T2, JAK2 (Homo sapiens, UniProt O60674).
T2 construct: made in house; host or cells: SF9 insect cells (baculovirus)
Nature of the test: JAK2 inhibition (Table 4). Particulars: read-out: JAK2 Ki.

For another test, the target named is T3, JAK1 (Homo sapiens, UniProt P23458).
T3 construct: made in house; host or cells: SF9 insect cells (baculovirus)
T3 sequence (P23458 852-1154): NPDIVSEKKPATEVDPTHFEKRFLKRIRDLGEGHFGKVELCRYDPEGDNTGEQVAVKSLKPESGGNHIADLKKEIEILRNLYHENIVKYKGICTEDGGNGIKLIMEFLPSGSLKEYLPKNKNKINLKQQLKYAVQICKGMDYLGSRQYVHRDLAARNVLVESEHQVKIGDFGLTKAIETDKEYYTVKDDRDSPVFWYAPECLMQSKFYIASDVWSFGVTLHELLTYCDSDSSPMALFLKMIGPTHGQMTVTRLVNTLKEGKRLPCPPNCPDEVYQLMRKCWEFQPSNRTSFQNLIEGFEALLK
As to the kind of experiment: JAK1 inhibition (Table 4). The conditions noted are these: read-out: JAK1 Ki.

Another test concerns the target T4, TYK2 (Homo sapiens, UniProt P29597).
T4 construct: made in house; host or cells: SF9 insect cells (baculovirus)
T4 sequence (P29597 873-1187): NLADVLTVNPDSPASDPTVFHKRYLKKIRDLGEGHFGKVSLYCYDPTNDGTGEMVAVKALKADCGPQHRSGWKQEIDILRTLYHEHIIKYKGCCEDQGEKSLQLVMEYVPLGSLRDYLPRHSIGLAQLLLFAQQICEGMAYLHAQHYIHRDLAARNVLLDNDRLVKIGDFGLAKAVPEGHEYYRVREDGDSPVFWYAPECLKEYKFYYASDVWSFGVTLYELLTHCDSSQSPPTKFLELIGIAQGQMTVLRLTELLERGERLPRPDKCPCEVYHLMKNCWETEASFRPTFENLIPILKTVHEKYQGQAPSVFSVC
As to the kind of experiment: TYK2 inhibition (Table 4).

T1 sequence (P52333 783-1124): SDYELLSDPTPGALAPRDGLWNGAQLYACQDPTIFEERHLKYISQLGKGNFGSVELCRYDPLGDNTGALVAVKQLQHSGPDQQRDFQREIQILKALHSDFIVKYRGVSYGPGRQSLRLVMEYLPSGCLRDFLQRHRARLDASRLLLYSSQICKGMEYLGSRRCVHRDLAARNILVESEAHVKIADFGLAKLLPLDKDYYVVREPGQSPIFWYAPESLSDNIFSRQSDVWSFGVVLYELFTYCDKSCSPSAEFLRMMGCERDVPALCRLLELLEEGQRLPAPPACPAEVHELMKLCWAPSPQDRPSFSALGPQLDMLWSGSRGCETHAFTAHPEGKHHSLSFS
T2 sequence (O60674 812-1132): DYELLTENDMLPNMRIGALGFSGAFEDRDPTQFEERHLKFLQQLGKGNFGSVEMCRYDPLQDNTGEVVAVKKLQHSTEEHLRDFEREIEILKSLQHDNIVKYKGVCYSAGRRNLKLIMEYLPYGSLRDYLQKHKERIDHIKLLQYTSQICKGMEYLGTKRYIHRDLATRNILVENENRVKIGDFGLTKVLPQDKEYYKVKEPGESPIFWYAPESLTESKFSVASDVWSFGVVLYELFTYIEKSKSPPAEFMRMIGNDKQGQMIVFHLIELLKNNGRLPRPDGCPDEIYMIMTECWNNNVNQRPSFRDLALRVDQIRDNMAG

For the compound `Cc1nc2cnc3[nH]ccc3c2n1C1CCN(CC(O)CO)CC1` (stereo not shown) [Example 698, 3-[4-(2-Methyl-6H-1,2,3,5,6-tetraaza-as-indacen-1-yl)-piperidin-1-yl]-propane-1,2-diol], the Ki (as a rule, the equilibrium dissociation constant of an inhibitor or competing ligand from its target) amounted to 66.9 nM on JAK3, 25.6 nM at JAK2, 6.41 nM at JAK1 and 74.4 nM at TYK2.
Consider `CC(O)c1nc2cnc3[nH]ccc3c2n1CC1CCCO1` (stereo not shown) [Example 699, 1-[1-(Tetrahydro-furan-2-ylmethyl)-1,6-dihydro-1,2,3,5,6-tetraaza-as-indacen-2-yl]-ethanol], for which the Ki on JAK3 was 280 nM; at JAK2, 131 nM; at JAK1, 235 nM; at TYK2, 1070 nM.
Take `CC(O)c1nc2cnc3[nH]ccc3c2n1CC1CCCO1` (stereo not shown) [Example 700, 1-[1-(Tetrahydro-furan-2-ylmethyl)-1,6-dihydro-1,2,3,5,6-tetraaza-as-indacen-2-yl]-ethanol]: the inhibition constant (Ki) on JAK3 was determined as 546 nM; at JAK2, 617 nM; on JAK1, 478 nM; at TYK2, 1430 nM.
For `Cc1nc2cnc3[nH]ccc3c2n1C1CCN(CC(C)O)CC1` (stereo not shown) [Example 701, 1-[4-(2-Methyl-6H-1,2,3,5,6-tetraaza-as-indacen-1-yl)-piperidin-1-yl]-propan-2-ol] the same measures were 234 nM, 60.6 nM, 15.9 nM and 202 nM.
For `C[C@@H](O)c1nc2cnc3[nH]ccc3c2n1C1CCN(c2cccc(C#N)n2)CC1` [Example 702, 4-[2-((R)-1-Hydroxy-ethyl)-6H-1,2,3,5,6-tetraaza-as-indacen-1-yl]-3,4,5,6-tetrahydro-2H-[1,2]bipyridinyl-6′-carbonitrile], in that order: 40.6 nM, 26.4 nM, 3.69 nM and 23.7 nM.
As to `Cc1noc(CN2CCC(n3c([C@@H](C)O)nc4cnc5[nH]ccc5c43)CC2)n1` [Example 703, (R)-1-{1-[1-(3-Methyl-[1,2,4]oxadiazol-5-ylmethyl)-piperidin-4-yl]-1,6-dihydro-1,2,3,5,6-tetraaza-as-indacen-2-yl}-ethanol], the Ki at JAK3 is 5.01 nM; at JAK2, 30.1 nM; at JAK1, 1.97 nM; at TYK2, 182 nM.
For `C[C@@H](O)c1nc2cnc3[nH]ccc3c2n1[C@H]1CCN(Cc2cnco2)C[C@H]1F` [Example 704, 1-[1-(3-Fluoro-1-oxazol-5-ylmethyl-piperidin-4-yl)-1,6-dihydro-1,2,3,5,6-tetraaza-as-indacen-2-yl]-ethanol], in that order: 12.8 nM, 56.7 nM, 2.45 nM and 138 nM.
For `OC1CCN(Cc2nc3cnc4[nH]ccc4c3n2C2CCN(CC(F)F)CC2)CC1` [Example 705, 1-{1-[1-(2,2-Difluoro-ethyl)-piperidin-4-yl]-1,6-dihydro-1,2,3,5,6-tetraaza-as-indacen-2-ylmethyl}-piperidin-4-ol] the same measures were 311 nM, 340 nM, 48.6 nM and 665 nM.
On to `OC1CCC(n2cnc3cnc4[nH]ccc4c32)C1` (stereo not shown) [Example 708, 3-(6H-1,2,3,5,6-Tetraaza-as-indacen-1-yl)-cyclopentanol], for which the Ki is 79.8 nM on JAK3, 38.6 nM at JAK2, 11.4 nM at JAK1 and 77.5 nM on TYK2.
For `O[C@H]1CC[C@@H](n2cnc3cnc4[nH]ccc4c32)C1` [Example 709, (1S,3R)-3-(6H-1,2,3,5,6-Tetraaza-as-indacen-1-yl)-cyclopentanol] the same measures were 56.3 nM, 24 nM, 6.03 nM and 44.4 nM.
Take `O[C@@H]1CC[C@H](n2cnc3cnc4[nH]ccc4c32)C1` [Example 710, (1R,3S)-3-(6H-1,2,3,5,6-Tetraaza-as-indacen-1-yl)-cyclopentanol]: the Ki on JAK3 stood at 45 nM; at JAK2, 34.3 nM; at JAK1 it was 6.85 nM; on TYK2, 50.6 nM.
For `O[C@@H]1CC[C@@H](n2cnc3cnc4[nH]ccc4c32)C1` [Example 711, (1R,3R)-3-(6H-1,2,3,5,6-Tetraaza-as-indacen-1-yl)-cyclopentanol] the same measures were 15.8 nM, 36.9 nM, 14.1 nM and 70.3 nM.
Consider `O[C@H]1CC[C@H](n2cnc3cnc4[nH]ccc4c32)C1` [Example 712, (1S,3S)-3-(6H-1,2,3,5,6-Tetraaza-as-indacen-1-yl)-cyclopentanol], for which the Ki on JAK3 came out at 29.7 nM; at JAK2, 44.9 nM; at JAK1, 15.3 nM; at TYK2, 114 nM.
On to `C[C@]1(O)CC[C@H](n2nnc3cnc4[nH]ccc4c32)CC1` [Example 713, Trans-1-Methyl-4-(6H-1,2,3,5,6-pentaaza-as-indacen-1-yl)-cyclohexanol], for which the Ki at JAK3 came to 202 nM; at JAK2, 15 nM; at JAK1, 8.14 nM; at TYK2, 62.7 nM.
For `C[C@]1(O)CC[C@@H](n2nnc3cnc4[nH]ccc4c32)CC1` [Example 714, Cis-1-Methyl-4-(6H-1,2,3,5,6-pentaaza-as-indacen-1-yl)-cyclohexanol], in that order: 105 nM, 9.89 nM, 5.29 nM and 28.6 nM.
In the case of `OC[C@]1(O)CC[C@H](n2nnc3cnc4[nH]ccc4c32)CC1` [Example 715, Trans-1-Hydroxymethyl-4-(6H-1,2,3,5,6-pentaaza-as-indacen-1-yl)-cyclohexanol], the Ki was determined as 109 nM on JAK3, 16.9 nM on JAK2, 11.5 nM on JAK1 and 58.2 nM on TYK2.
Consider `OC[C@]1(O)CC[C@@H](n2nnc3cnc4[nH]ccc4c32)CC1` [Example 716, Cis-1-Hydroxymethyl-4-(6H-1,2,3,5,6-pentaaza-as-indacen-1-yl)-cyclohexanol], for which the Ki at JAK3 amounted to 167 nM; at JAK2 it was 23.3 nM; on JAK1 it was 10.6 nM; on TYK2, 74.3 nM.
For `Cc1nc2cnc3[nH]ccc3c2n1[C@H]1CC[C@@H](NCC(F)(F)F)C1` [Example 719, [(1R,3S)-3-(2-Methyl-6H-1,3,5,6-tetraaza-as-indacen-1-yl)-cyclopentyl]-(2,2,2-trifluoro-ethyl)-amine] the same measures were 22 nM, 23.2 nM, 4.07 nM and 30.4 nM.
Consider `Cc1nc2cnc3[nH]ccc3c2n1[C@@H]1CC[C@@H](NCC(F)(F)F)C1` [Example 720, [(1R,3R)-3-(2-Methyl-6H-1,3,5,6-tetraaza-as-indacen-1-yl)-cyclopentyl]-(2,2,2-trifluoro-ethyl)-amine], for which the Ki came to 88.1 nM on JAK3, 18.3 nM at JAK2, 6.6 nM at JAK1 and 54.5 nM on TYK2.
For `Cc1nc2cnc3[nH]ccc3c2n1[C@H]1CC[C@@H](NCCC#N)C1` [Example 723, 3-[(1R,3S)-3-(2-Methyl-6H-1,3,5,6-tetraaza-as-indacen-1-yl)-cyclopentylamino]-propionitrile], in that order: 4.88 nM, 29.7 nM, 6.22 nM and 94.6 nM.
For `Cc1nc2cnc3[nH]ccc3c2n1[C@@H]1CC[C@@H](NCCC#N)C1` [Example 724, 3-[(1R,3R)-3-(2-Methyl-6H-1,3,5,6-tetraaza-as-indacen-1-yl)-cyclopentylamino]-propionitrile] the same measures were 16 nM, 24.3 nM, 6.27 nM and 78.9 nM.
On to `Cc1nc2cnc3[nH]ccc3c2n1[C@@H]1CC[C@@H](NC(C)CC#N)C1` (stereo partly drawn) [Example 725, 3-[(1R,3R)-3-(2-Methyl-6H-1,3,5,6-tetraaza-as-indacen-1-yl)-cyclopentylamino]-butyronitrile], for which the inhibition constant (Ki) is 32.5 nM at JAK3, 49.5 nM at JAK2, 22.1 nM at JAK1 and 211 nM on TYK2.
As to `CC(C)(C)OC(=O)N[C@@H]1CC[C@@H](n2nnc3cnc4[nH]ccc4c32)C1` [Example 727, [(1R,3R)-3-(6H-1,2,3,5,6-Pentaaza-as-indacen-1-yl)-cyclopentyl]-carbamic acid tert-butyl ester], the inhibitory constant (Ki) at JAK3 came to 74.4 nM; on JAK2, 7.73 nM; at JAK1, 1.76 nM; at TYK2 it was 143 nM.
For `Cc1nc2cnc3[nH]ccc3c2n1[C@H]1CC[C@@H](NC(=O)CC(F)(F)F)C1` [Example 731, 3,3,3-Trifluoro-N-[(1R,3S)-3-(2-methyl-6H-1,3,5,6-tetraaza-as-indacen-1-yl)-cyclopentyl]-propionamide], in that order: 9.13 nM, 5.54 nM, 0.58 nM and 12.4 nM.
For `COC(=O)N[C@@H]1CC[C@@H](n2c(C)nc3cnc4[nH]ccc4c32)C1` [Example 735, [(1R,3R)-3-(2-Methyl-6H-1,3,5,6-tetraaza-as-indacen-1-yl)-cyclopentyl]-carbamic acid methyl ester], in that order: 54.6 nM, 5.67 nM, 1.52 nM and 19.2 nM.

For the origin of these results see patent US8461328B2, “Tricyclic heterocyclic compounds, compositions and methods of use thereof” (Genentech, Inc., priority 2010, dated 2013).
